Assay results from patent US10813880B2, “Isotretinoin oral-mucosal formulations and methods for using same” (Skyline Biosciences LLC, priority 2017, dated 2020).

Columns and labels:
[1] = system: Human gingival keratinocytes; assay: Cytotoxicity in 2D cultured oral epithelial cells (Cell Titer96 Aqueous One); type: cell-based; conditions: seven concentrations 0.3 to 0.00003%, 24 h
Description: Human gingival keratinocytes derived from a single donor were cultured at 37° C. with 5% CO2, and 95% humidity in a 96-well plate for cytotoxicity evaluation. Cells were incubated in the presence of seven concentrations of isotretinoin ranging from 0.3 to 0.00003% for 24 h in triplicate. Untreated cells were used as baseline control. Cytotoxicity was evaluated using the Cell Titer96 Aqueous One (Promega, WI, USA) basic test according to manufacturer's instructions using an absorbance of 490 nm for the final colorimetric readings.

[2] = system: Human oral mucosa 3D models (composed of human gingival keratinocytes); assay: Irritation testing in 3D cultured oral epithelial cells (MTT); type: cell-based; conditions: 4 hr
Description: Human oral mucosa 3D models (composed of human gingival keratinocytes) were exposed topically to CCP-042 oral adhesive film (0.1%, 0.2%, and 0.3%) for 4 hr before viability assessment. Cell viability was measured by MTT assay on tissues, in triplicate. 1% Triton X-100 was used as positive control. The reduction of the viability of tissues exposed to formulations as compared to that of PBS-treated negative controls were used to predict the skin irritation potential using European Union (EU) and Globally Harmonized System (GHS) classifications, which define an irritant as a substance that reduces the viability of the exposed tissue to less than 50% of the viability of untreated controls.

CC1=C(/C=C/C(C)=C/C=C/C(C)=C\C(=O)O)C(C)(C)CCC1 [isotretinoin, (2Z,4E,6E,8E)-3,7-dimethyl-9-(2,6,6-trimethylcyclohex-1-en-1-yl)nona-2,4,6,8-tetraenoic acid]
cytotoxicity (inhibition of viability of more than 20% of control) [1]: toxic
toxicity to 3D tissue ([2]; concentration 0.1%): not toxic
toxicity to 3D tissue ([2]; concentration 0.2%): not toxic
